How the values were obtained:
[1] = target: T1, BK channels heterologously expressed in Xenopus laevis oocytes (Homo sapiens, UniProt Q12791); test: BK channel opening activity, two-electrode voltage clamp in oocytes; format: cell-based; conditions: Compound at 30 μM, step from −40 mV to +30 mV, added after a stable current level was reached, FIG. 1
T1 construct: expressed in transfected cells; host or cells: Xenopus laevis oocytes
Procedure: In this example the BK channel opening activity of a 1,5-diarylsubstituted 1,2,3-triazole derivative for use according to the invention, i.e. CMPD-2 (herein designated Compound A), is determined using BK channels heterologously expressed in Xenopus laevis oocytes.
The electrical current through the BK channel is measured conventional two-electrode voltage clamp. BK current is activated by repeated step protocols. In brief, this protocol goes from a resting membrane potential of −40 mV lasting for 5 s to a depolarised step to +30 mV lasting for 1 s. The protocol was repeated continuously.
Having reached a stable current level, Compound A (30 μM), was added.

T1 sequence (Q12791 whole entry): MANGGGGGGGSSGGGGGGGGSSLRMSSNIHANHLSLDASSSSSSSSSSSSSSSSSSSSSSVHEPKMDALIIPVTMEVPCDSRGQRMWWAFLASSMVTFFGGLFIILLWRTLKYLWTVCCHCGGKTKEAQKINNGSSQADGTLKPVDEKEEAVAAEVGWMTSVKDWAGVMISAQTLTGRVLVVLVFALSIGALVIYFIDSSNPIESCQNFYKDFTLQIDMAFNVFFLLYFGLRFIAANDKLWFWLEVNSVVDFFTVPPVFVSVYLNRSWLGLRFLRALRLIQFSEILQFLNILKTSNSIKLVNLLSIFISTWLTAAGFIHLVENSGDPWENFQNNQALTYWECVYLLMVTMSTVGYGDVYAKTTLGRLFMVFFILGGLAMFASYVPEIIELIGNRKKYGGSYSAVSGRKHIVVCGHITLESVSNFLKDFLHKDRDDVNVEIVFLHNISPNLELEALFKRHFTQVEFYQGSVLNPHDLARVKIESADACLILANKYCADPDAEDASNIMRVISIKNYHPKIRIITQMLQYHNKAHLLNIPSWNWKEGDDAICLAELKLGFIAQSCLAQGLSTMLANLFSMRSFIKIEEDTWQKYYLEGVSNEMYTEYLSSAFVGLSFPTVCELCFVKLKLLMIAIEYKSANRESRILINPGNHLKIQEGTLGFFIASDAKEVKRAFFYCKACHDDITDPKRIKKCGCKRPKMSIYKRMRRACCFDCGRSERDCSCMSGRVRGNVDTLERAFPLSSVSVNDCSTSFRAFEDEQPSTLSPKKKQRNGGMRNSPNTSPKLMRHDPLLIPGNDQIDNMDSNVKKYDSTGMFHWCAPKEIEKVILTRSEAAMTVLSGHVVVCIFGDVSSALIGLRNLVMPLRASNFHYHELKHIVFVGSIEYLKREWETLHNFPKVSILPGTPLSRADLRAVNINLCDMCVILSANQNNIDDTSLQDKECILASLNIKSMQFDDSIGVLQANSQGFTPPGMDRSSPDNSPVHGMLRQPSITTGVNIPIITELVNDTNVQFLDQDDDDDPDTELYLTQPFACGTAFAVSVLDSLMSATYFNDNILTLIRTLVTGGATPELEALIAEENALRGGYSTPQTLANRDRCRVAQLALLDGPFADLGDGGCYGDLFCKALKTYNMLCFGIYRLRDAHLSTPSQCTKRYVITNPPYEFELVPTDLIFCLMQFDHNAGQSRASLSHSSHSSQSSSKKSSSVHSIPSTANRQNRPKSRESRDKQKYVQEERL

SMILES | melting point [°C] | BK current activated by depolarisation (BK channel opening activity) [1]
FC(F)(F)c1cccc(-c2cnnn2-c2cc(Cl)ccc2-c2nnn[nH]2)c1 [CMPD-3, 5-{4-Chloro-2-[5-(3-trifluoromethyl-phenyl)-[1,2,3]triazol-1-yl]-phenyl}-1H-tetrazole] | 230.5 to 232.1 | –
FC(F)(F)c1cccc(-c2cnnn2-c2cc(Cl)ccc2OCc2nnn[nH]2)c1 [CMPD-6, 5-{4-Chloro-2-[5-(3-trifluoromethyl-phenyl)-[1,2,3]triazol-1-yl]-phenoxymethyl}-1H-tetrazole] | 181.1 to 183.6 | –
FC(F)(F)c1ccc(-c2ccc(-n3nncc3-c3cc(C(F)(F)F)cc(C(F)(F)F)c3)c(-c3nnn[nH]3)c2)cc1 [Compound A, 5-{4-[5-(3,5-Bis-trifluoromethyl-phenyl)-[1,2,3]triazol-1-yl]-4′-trifluoromethyl-biphenyl-3-yl}-1H-tetrazole] | – | marked increase

From US20100105689A1, “NOVEL 1,4- AND 1,5-DIARYLSUBSTITUTED 1,2,3-TRIAZOLES USEFUL AS POTASSIUM CHANNEL MODULATORS” (priority 2007, published 2010)
